Test results: ChEMBL document CHEMBL1201862, “PubChem BioAssay data set” (2004)
Activity calls are given as the source filed them. Non-standard residues stand in square brackets, D forms with d. Residues, ends and D or L forms follow the SMILES beside them. ξ: configuration not given here. *: point of attachment. Trx = NC[C@H]1CC[C@H](C(=O)O)CC1; Tic = O=C(O)[C@@H]1Cc2ccccc2CN1; Ile(3ξ) = CCC(C)[C@H](N)C(=O)O; Boc = CC(C)(C)OC(=O)*

Assays:
[1] = activation of miR-122 Renilla sensor silencing – cell-based, Huh7 psiCHECK-miR122, Renilla luciferase, cherry-picked, dose response (AID 651956); assay type: functional;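 further: huh7 hepatoma cells stably carrying a psiCHECK-2 miR-122 sensor plasmid; renilla luciferase signal reporting endogenous miR-122 activity after 48 h compound exposure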
[2] = molecular target: T1, DNA repair protein RAD52 homolog (Homo sapiens, UniProt P43351); assay type: functional, biochemical
T1 sequence (P43351 whole entry): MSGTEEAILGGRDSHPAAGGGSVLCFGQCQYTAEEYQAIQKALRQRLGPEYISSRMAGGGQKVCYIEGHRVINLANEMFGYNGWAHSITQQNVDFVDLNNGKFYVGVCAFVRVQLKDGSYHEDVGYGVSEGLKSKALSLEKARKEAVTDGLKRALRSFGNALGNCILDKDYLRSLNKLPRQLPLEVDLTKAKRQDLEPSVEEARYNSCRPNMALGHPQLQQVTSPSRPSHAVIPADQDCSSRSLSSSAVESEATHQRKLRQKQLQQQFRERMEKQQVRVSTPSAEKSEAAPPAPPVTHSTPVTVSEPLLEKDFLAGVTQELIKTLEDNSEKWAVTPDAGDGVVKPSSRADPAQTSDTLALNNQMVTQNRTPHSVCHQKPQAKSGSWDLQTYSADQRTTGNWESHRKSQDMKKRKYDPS

[3] = molecular target: T2, High affinity choline transporter 1 (Homo sapiens, UniProt Q9GZV3); test: human choline transporter blockers, potency – cell-based, 5-point CRC, membrane potential dye, dose response (AID 504840); assay type: functional
T2 sequence (Q9GZV3 whole entry): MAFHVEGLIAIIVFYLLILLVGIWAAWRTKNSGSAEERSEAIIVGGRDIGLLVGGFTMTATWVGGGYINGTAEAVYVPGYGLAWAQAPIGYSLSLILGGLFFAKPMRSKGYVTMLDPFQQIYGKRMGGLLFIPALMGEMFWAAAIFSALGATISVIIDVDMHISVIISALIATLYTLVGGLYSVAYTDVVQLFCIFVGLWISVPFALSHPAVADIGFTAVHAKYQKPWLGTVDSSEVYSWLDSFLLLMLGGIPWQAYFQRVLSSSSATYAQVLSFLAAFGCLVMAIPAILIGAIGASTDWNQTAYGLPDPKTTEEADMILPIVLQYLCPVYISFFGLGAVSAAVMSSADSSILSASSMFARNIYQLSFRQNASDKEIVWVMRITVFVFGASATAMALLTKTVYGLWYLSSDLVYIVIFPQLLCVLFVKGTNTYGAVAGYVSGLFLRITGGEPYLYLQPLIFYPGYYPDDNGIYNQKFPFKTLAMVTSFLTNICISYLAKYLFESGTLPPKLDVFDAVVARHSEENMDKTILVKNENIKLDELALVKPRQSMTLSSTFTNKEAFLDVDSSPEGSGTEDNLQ

[4] = viability of HCT116 lacking mutant beta-catenin – cell-based, human colon tumor, dose response (AID 1045); assay type: functional;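 further: HCT116 colon tumor cells with beta catenin knocked out; cells exposed to compound for 60 hours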
[5] = viability of PTEN-deleted HCT116 cells – cell-based, HCT116 PTEN knockout, dose response (AID 1047); assay type: functional;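 further: HCT116 colon tumor cells with PTEN knocked out; cells exposed to compound for 60 hours before readout; potency for loss of cell viability measured by luminescence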
[6] = molecular target: Luciferin 4-monooxygenase (Photinus pyralis, UniProt P08659); test: inhibition of purified Photinus pyralis luciferase – biochemical, luminescence, dose response (AID 1891)
[7] = Luminescence Cell-Based Dose Confirmation HTS to Identify Inhibitors of Platelet Dense Granule Release. [Related pubchem assays: 1663 (Primary HTS), 1678 (Summary of Project)]; assay type: functional
[8] = molecular target: Induced myeloid leukemia cell differentiation protein Mcl-1 (Homo sapiens, UniProt Q07820); assay type: functional
[9] = molecular target: T3, Corticotropin-releasing factor receptor 2/Corticotropin-releasing factor-binding protein (Homo sapiens, UniProt P24387+Q13324); test: activators of CRF receptor 2 with binding protein – uHTS hits, confirmation (AID 602473); assay type: functional; conditions: read-out: EC50_Mean
T3 sequence (Q13324 whole entry): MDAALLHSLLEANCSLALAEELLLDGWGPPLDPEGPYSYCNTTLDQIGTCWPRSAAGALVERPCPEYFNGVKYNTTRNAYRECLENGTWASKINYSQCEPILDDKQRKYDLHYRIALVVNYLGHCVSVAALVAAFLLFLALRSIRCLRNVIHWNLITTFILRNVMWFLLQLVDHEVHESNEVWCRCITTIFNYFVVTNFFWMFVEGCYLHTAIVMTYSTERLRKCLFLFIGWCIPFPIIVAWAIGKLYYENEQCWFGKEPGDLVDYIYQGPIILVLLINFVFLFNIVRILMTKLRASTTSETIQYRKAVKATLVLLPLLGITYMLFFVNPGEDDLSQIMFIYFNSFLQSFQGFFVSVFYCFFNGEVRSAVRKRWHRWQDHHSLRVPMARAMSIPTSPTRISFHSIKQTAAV
T3 sequence (P24387 whole entry): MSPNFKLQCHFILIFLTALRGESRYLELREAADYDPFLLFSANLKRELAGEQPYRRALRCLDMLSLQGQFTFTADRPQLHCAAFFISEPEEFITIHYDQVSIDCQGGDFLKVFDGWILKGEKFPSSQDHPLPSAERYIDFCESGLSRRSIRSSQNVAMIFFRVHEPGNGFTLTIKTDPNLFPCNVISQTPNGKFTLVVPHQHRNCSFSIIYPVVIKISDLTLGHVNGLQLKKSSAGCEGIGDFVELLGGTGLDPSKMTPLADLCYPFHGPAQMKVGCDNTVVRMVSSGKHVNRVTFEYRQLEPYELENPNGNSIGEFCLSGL

[10] = molecular target: T3, Corticotropin-releasing factor receptor 2/Corticotropin-releasing factor-binding protein; test: Dose Response confirmation of uHTS hits for small molecule antagonists of the CRF-binding protein and CRF-R2 receptor complex.; assay type: functional; conditions: read-out: IC50_Mean
[11] = loss of viability in HepG2 cells – cell-based, CellTiter-Glo, cherry-picked, cytotoxicity control for Shn3 inhibitor project, dose response (AID 624134); assay type: functional
[12] = non-specific 3'UTR reporter inhibition in Clone20-Shn3RL – cell-based, Renilla luciferase, cherry-picked, counter-screen for Shn3 inhibitor project, dose response (AID 624133); assay type: functional
[13] = reduction of Shn3 3'UTR-driven luciferase in osteoblasts – cell-based, Clone20 osteoblasts, firefly luciferase, cherry-picked, dose response (AID 624132); assay type: functional;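 further: firefly luciferase luminescence from reporter carrying the Shn3 3'UTR in osteoblasts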
[14] = NIH3T3 cell viability loss – ATP luminescence, mouse fibroblasts, counter-screen, dose response (AID 2010); assay type: functional, cell-based;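 further: cells exposed to compound for about 90 hours before reading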
[15] = Trypanosoma cruzi growth suppression in host cells – NIH3T3 host cells, beta-gal luminescence, confirmation (AID 2044); assay type: functional, cell-based;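 further: intracellular parasites grown in NIH/3T3 mouse fibroblasts as host cells; luminescent beta-galactosidase reporter signal from transgenic T. cruzi replicating inside host cells; inhibitors lower the luminescence signal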
[16] = NIH-3T3 fibroblast cytotoxicity, dose response, cytotoxicity control, cell-based, fluorescence, Alamar Blue, secondary assay (AID 2327); assay type: functional;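 further: NIH-3T3 mouse fibroblasts cultured with fluconazole at 8 µg/mL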
[17] = fluconazole-exposed Candida albicans growth modulators – fluorescence, retest, confirmation (AID 2467); assay type: functional, cell-based

Sequence of Induced myeloid leukemia cell differentiation protein Mcl-1 (Q07820 whole entry): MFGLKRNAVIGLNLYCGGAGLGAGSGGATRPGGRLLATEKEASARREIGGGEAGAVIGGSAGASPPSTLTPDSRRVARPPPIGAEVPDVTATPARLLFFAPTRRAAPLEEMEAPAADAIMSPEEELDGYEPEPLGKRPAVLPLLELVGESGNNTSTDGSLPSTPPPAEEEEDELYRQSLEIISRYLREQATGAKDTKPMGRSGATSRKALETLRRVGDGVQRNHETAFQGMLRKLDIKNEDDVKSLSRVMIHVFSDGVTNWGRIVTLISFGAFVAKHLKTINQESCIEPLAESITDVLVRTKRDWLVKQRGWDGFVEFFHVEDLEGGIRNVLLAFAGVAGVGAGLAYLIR
Sequence of Luciferin 4-monooxygenase (P08659 whole entry): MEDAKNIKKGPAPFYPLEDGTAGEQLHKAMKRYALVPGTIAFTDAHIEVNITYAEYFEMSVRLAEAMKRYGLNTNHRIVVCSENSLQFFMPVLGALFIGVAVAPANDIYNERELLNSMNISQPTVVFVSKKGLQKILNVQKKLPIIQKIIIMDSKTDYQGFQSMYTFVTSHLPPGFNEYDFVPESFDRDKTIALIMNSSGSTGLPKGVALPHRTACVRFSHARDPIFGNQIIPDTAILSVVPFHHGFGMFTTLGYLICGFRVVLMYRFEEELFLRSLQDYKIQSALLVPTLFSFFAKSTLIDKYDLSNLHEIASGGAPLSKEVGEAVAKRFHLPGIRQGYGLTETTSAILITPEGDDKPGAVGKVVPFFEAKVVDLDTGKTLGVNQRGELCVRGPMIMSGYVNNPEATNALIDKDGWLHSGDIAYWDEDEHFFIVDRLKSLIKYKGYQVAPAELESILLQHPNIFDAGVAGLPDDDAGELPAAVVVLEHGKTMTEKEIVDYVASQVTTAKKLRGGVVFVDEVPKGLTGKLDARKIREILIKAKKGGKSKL

SMILES: Cc1ccc(-c2ccc3c(c2)O[C@H](CN(C)C(=O)CC2CC2)[C@H](C)CN([C@H](C)CO)S3(=O)=O)cc1
- AC50 [1]: 10.7 µM (active)

SMILES: Cc1cc(N2CCC(N(C)C3CCCC3)CC2)nc2cc(O)ccc12
- AC50 [2]: 11.3 µM (active)

SMILES: Cc1csc(=N)n1CC(=O)N1CCc2ccccc21
- IC50 [3]: 13.2 µM (active)

SMILES: C[C@@H]1CN([C@@H](C)CO)C(=O)c2cc(NC(=O)Nc3cccc4ccccc34)ccc2O[C@@H](C)CCCCO[C@H]1CN(C)CC1CCCCC1
- AC50 [1]: 8.95 µM (active)

SMILES: COc1ccc(NC(=O)C(C)Sc2nnc3c4c(nc(-c5ccc(OC)cc5)n23)CC(C)(C)OC4)cc1 (stereo not given)
- EC50 [4]: 58.9 µM (active)
- EC50 [5]: 27 µM (active)

SMILES: O=C(N/N=C/c1ccccc1OC(=O)c1ccc2c(c1)OCO2)c1ccccc1
- EC50 [4]: 18.9 µM (active)
- EC50 [5]: 20.9 µM (active)

SMILES: Cc1cccc(/N=C/c2sc3ccccc3c2O)n1
- EC50 [6]: 1.02 µM (active)
- EC50 [7]: 22.1 µM (active)
- IC50 [8]: 1.57 µM (active)

SMILES: CCOc1ccc(C(=O)OCC(=O)Nc2cccnc2Cl)cc1OCC
- EC50 [9]: > 53 µM (inactive)
- IC50 [10]: > 47.1 µM (inactive)

SMILES: CN1C(=O)c2cc(NS(=O)(=O)c3ccc(Cl)cc3)ccc2OC[C@H]2O[C@H](CC(=O)N3CCc4ccccc4C3)CC[C@@H]21
- AC50 [1]: 14.8 µM (active)

SMILES: COc1ccccc1N1CCN(C(=O)C2CCCN(S(=O)(=O)c3ccc4c(c3)CCCN4C(C)=O)C2)CC1 (stereo not given)
- AC50 [11]: 50.9 µM (active)
- AC50 [12]: 1.15 µM (active)
- AC50 [13]: 2.68 µM (active)

SMILES: CCc1ccc(N2C(=O)NC(=O)/C(=C\NCCN(CC)CC)C2=O)cc1
- AC50 [12]: 27.8 µM (active)
- AC50 [13]: > 70 µM (inactive)

SMILES: CN(C)c1ccc(NC(=O)CCCc2ccccc2)cc1
- IC50 [8]: 4.98 µM (not active)

SMILES: N=C(N)SCc1ccccn1
- IC50 [3]: 13.2 µM (active)

SMILES: O=C(CC(CC(=O)c1ccccc1)c1ccncc1)c1ccccc1
- EC50 [9]: > 53 µM (inactive)
- IC50 [10]: > 47.1 µM (inactive)

SMILES: COc1cc2c(cc1OC)CN(c1nc(CN3CCCC3)nc3sc(C)c(C)c13)CC2
- AC50 [2]: 11.5 µM (active)
- EC50 [14]: > 60 µM (not active)
- EC50 [15]: 0.278 µM (active)

SMILES: C[C@@H]1CN([C@H](C)CO)S(=O)(=O)c2ccc(C3=CCCCC3)cc2O[C@@H]1CN(C)C(=O)Cc1ccncc1
- AC50 [1]: 8.26 µM (active)

SMILES: CCCCN(C(=O)c1ccc2c(c1)S(=O)(=O)N=C1CCCCCN12)c1c(N)n(CCCC)c(=O)[nH]c1=O
- EC50 [9]: > 53 µM (inactive)
- IC50 [10]: > 47.1 µM (inactive)

SMILES: Cc1ccc(C2CC2C(=O)NN=C(S)Nc2cccc(Cl)c2)cc1 (stereo not given)
- IC50 [3]: 15.8 µM (active)
- EC50 [16]: > 160 µM (inactive)
- EC50 [17]: > 38 µM (not active)

SMILES: CCC(C)[C@H](NC(=O)[C@@H]1Cc2ccccc2CN1C(=O)OC(C)(C)C)C(=O)NC[C@H]1CC[C@H](C(=O)O)CC1 (stereo not given in full) (Boc-[Tic]-[Ile(3ξ)]-[Trx]-OH)
- EC50 [9]: > 53 µM (inactive)
- IC50 [10]: > 47.1 µM (inactive)

SMILES: Nc1ccc(CC(N)c2csc(Nc3ncccn3)n2)cc1 (stereo not given)
- AC50 [2]: 19.2 µM (active)

SMILES: CC(C)(C)NC(=O)C(c1ccc(O)cc1)N(Cc1ccc2c(c1)OCO2)C(=O)CCl (stereo not given)
- EC50 [9]: > 53 µM (inactive)
- IC50 [10]: > 47.1 µM (inactive)

SMILES: COCCn1nnnc1C(c1ccccc1)N1CCN(c2ccccc2)CC1 (stereo not given)
- EC50 [9]: > 53 µM (inactive)
- IC50 [10]: > 47.1 µM (inactive)

SMILES: CCOC(=O)N1CCN(C(=O)c2oc3ccc(S(=O)(=O)N4CCCCCC4)cc3c2C)CC1
- EC50 [14]: > 60 µM (not active)
- IC50 [3]: 13.2 µM (active)
- EC50 [15]: 2.02 µM (active)

SMILES: CC(C)C[C@@H](CN1CCCC1CN1C(=S)NC[C@@H]1Cc1ccc(O)cc1)N1C[C@H](Cc2ccc(O)cc2)N(CC2CCCCCC2)C1=S (stereo not given in full)
- AC50 [11]: 22.7 µM (active)
- AC50 [12]: 16.9 µM (active)
- AC50 [13]: 18.8 µM (active)

SMILES: Cc1ccc(S(=O)(=O)N2C[C@@H]3CCCC[C@@H]3[C@@H](C)[C@H]2c2cn(Cc3ccccc3)c3ncccc23)cc1
- AC50 [11]: 2.47 µM (active)
- AC50 [12]: 4.12 µM (active)
- AC50 [13]: 1.92 µM (active)

SMILES: O=C(NCCCO)C(=O)Nc1cc2c3c(c1)CCN3C(=O)CC2
- EC50 [9]: > 53 µM (inactive)
- IC50 [10]: > 47.1 µM (inactive)

SMILES: O=C(c1cccc(NS(=O)(=O)c2ccc(F)c(F)c2)c1)N1CCN(C(c2ccccc2)c2ccccc2)CC1
- EC50 [9]: > 53 µM (inactive)
- IC50 [10]: > 47.1 µM (inactive)

SMILES: CC(C)COc1nc2ccccc2nc1N1CCN(C)CC1
- IC50 [3]: 15.1 µM (active)

SMILES: COc1cccc(-c2ccc3c(c2)O[C@H](CN(C)C(=O)C2CCOCC2)[C@H](C)CN([C@@H](C)CO)S3(=O)=O)c1
- AC50 [1]: 6.42 µM (active)

SMILES: O=C(NNC(=O)C1CCN(S(=O)(=O)c2ccc(Cl)cc2)CC1)c1ccccc1O
- AC50 [11]: 63.1 µM (active)
- AC50 [12]: 6.86 µM (active)
- AC50 [13]: 18.5 µM (active)

SMILES: CCOc1ccc2nc(O)c(CN(Cc3cccs3)C(CC)c3nnnn3C(C)(C)CC)cc2c1 (stereo not given)
- EC50 [4]: 5.11 µM (active)
- EC50 [5]: 4.69 µM (active)

SMILES: O=C(O)CCN1C(=O)/C(=C\c2ccc(-c3nc4ccccc4s3)o2)SC1=S
- IC50 [8]: 1.53 µM (active)
